From patent publication US10196588B2, “Detergent formulation for dishwashing machine” (Universiti Putra Malaysia (UPM), priority 2012, dated 2019)

How the values were obtained:
T1 lipase = experiment: Lipase stability test: residual activity of T1 lipase after incubation with detergent components; format: biochemical, Geobacillus zalihae strain T1; conditions: for Stability of T1 lipase in the component (in words): incubation in 0.2% (w/v) component, 60° C., 30 min
Description: The compatibility of the T1 lipase with the other components of the formulated detergent was evaluated by incubating the enzyme in 0.2% (w/v) of those components, i.e., surfactants, bleaches, and alkalinity agents in a water bath (Protech, Malaysia) at 60° C. for 30 min. After 30 min, the enzyme was assayed for its residual activity.
J Am Oil Chem Soc. 63(1): p. 89-92]. A cupric acetate pyridine reagent was prepared by mixing 5% (w/v) copper (II) acetate with DI water and adjusting the solution pH to 6.1 with pyridine. The substrate emulsion used consisted of olive oil/50 mM of Glycine-NaOH buffer at pH 9.0 (1:1), which was homogenized using a homogenizer (Heidolph, Germany). […] After 30 min, the reaction was stopped by adding 5 ml isooctane and 1 ml 6 N HCl, and the mixture was vortexed for 30 s and left for 15 min. 4 ml of the upper layer of the mixture, which contained the fatty acids, was transferred to a test tube containing 1 ml of the cupric acetate pyridine reagent, and the mixture was vortexed for 30 s and left for 1 hour. The color of the solution was then evaluated colorimetrically by reading the OD using the Ultraspec 2100 Pro spectrophotometer (Amersham Bioscience, Sweden) at 715 nm. All assays were done in triplicates. 1 unit (U) of lipase activity was defined as the rate of 1 μmol of fatty acid released per minute under standard assay conditions.

[1] = Resulting pH of the alkalinity agents in solution; format: physicochemical; conditions: resulting pH of the alkalinity agent in solution
[2] = T1 lipase residual activity after 30 min at 60° C. in 0.2% (w/v) surfactant or bleach, w/o control = 100
[3] = T1 lipase residual activity after 30 min at 60° C. in 0.2% (w/v) alkalinity agent, Glycine-NaOH control = 100

Compound	Relative activity (%) (T1 lipase; [2])	Stability of T1 lipase in the component (in words) (T1 lipase)	pH [1]	Relative activity (%) (T1 lipase; [3])	Stability of T1 lipase in the component (in words) (T1 lipase; listed as carbonate)
CCCCCCCCCCCCCCCC[N+](C)(C)C.[Br-] [CTAB, cetyl trimethylammonium bromide]	1.9%	strongly destabilized	–	–	–
CCCCCCCCCCCCOS(=O)(=O)[O-].[Na+] [SDS, sodium dodecyl sulfate]	14%	destabilized	–	–	–
O=C([O-])O.[Na+] [Sodium bicarbonate, sodium bicarbonate]	–	–	8.63	94%	–
O=C([O-])[O-].[Na+].[Na+] [Sodium carbonate, sodium carbonate]	–	lowest residual activities	10.84	1%	greatly destabilized
O=C([O-])CC(O)(CC(=O)[O-])C(=O)[O-].[Na+].[Na+].[Na+] [Sodium citrate, sodium citrate]	–	did not greatly affect the stability	8.30	48%	–
O=C([O-])[O-].O=C([O-])[O-].OO.OO.OO.[Na+].[Na+].[Na+].[Na+] [Sodium percarbonate, sodium percarbonate]	0.3%	strongly destabilized	–	–	–
O=P(O)(O)OP(=O)(O)OP(=O)(O)O [Sodium tripolyphosphate, sodium tripolyphosphate]	–	lowest residual activities	9.60	0%	–
CCCCCCCC/C=C\CCCCCCCC(=O)OCCOCC(OCCO)C1OCC(OCCO)C1OCCO (centres unmarked) [Tween 80, polysorbate 80]	98%	highest stability	–	–	–
Polyethylene glycol 300 [PEG 300]	61%	–	–	–	–
sodium perborate	3.4%	strongly destabilized	–	–	–
